These results are taken from paper PMC10669426, “Exploring the Use of Hydroxytyrosol and Some of Its Esters in Food-Grade Nanoemulsions: Establishing Connection between Structure and Efficiency” (Antioxidants, 2023).

Data set [1] can be described thus: Distribution and effective interfacial concentrations of AOs in fish oil nanoemulsions, calculated from partition constants. The note with it: for order of the percentages of AOs in the interfacial region (%AOI): at any ΦI value. It counts as physicochemical. The text has this:
The values of the partition constants PO^I and PW^I in Table 3 were used to estimate the distribution of the AOs in the intact nanoemulsions. Details of the calculations and the equations employed are not given here to keep focus and for the sake of clarity, but can be easily found elsewhere.
In Equation (5), nT represents the total number of moles of the antioxidant, VT the total volume of the emulsion, and ΦI is the interfacial volume fraction. To distinguish between the stoichiometric and effective concentrations, we employed square brackets, [ ], defined as molarity of total emulsion volume, and parenthesis, ( ), defined as molarity of the interfacial region, respectively. The reader must be aware that VI, is the sum of all of the interfacial volumes of all of the aggregates present in the system, and that it matches that of the total volume of the added surfactant. Emulsion droplets and other association colloids as micelles present in the system are broken and reformed at rates much faster than those of the relevant chemical reactions, allowing rapid transfer of materials between them. That is, they are in dynamic equilibrium. (5) (AOI)=nI/VI=nT(%AOI)/VI=nT/VT(%AOI)/VI/VT=[AOT](%AOI)/ΦI

Data set [2] in a line: Chemical kinetic method (pseudophase model) with the probe 16-ArN2^+ in intact fish oil-in-water nanoemulsions. It counts as physicochemical. The conditions noted are these: intact 1:9 fish oil-in-water nanoemulsions, T = 25 °C; for 10^2 kI, interfacial rate constant for the reaction between 16ArN2^+ and AO: values given as 10^2 kI. The procedure:
The distribution of HT and its derivatives was determined by using a chemical kinetic method, as have been published elsewhere based on the reaction between a chemical probe (16-ArN2^+, specifically localized at the interface) and the AOs. The changes detected in the observed rate constant for this reaction (kobs) at different surfactant volume fractions (ΦI) were evaluated according to the pseudophase kinetic model developed by Romsted and Bravo-Díaz and explained in detail elsewhere.
The chemical probe 16-ArN2^+ reacts, virtually, with any antioxidant as described elsewhere and the reaction can be monitored by UV-Vis with the aid of a specially developed derivatization protocol. […] The absorbance of the resulting azo dye was monitored at λ = 572 nm once diluted with a 50:50 (v:v) BuOH:EtOH mixture. This dilution step is critical and its purpose is to obtain an optically transparent, homogeneous solution. Details of the complete procedure have been published elsewhere.
Succinctly, after initiating the reaction between 16-ArN2^+ and the antioxidants in the intact emulsion, constant volumes (200 µL) of the nanoemulsion were extracted at given time periods and rapidly added to numbered glass tubes to quench the reaction. Because the quenching reaction is much faster than the reaction between 16-ArN2^+ and the antioxidants, the absorbance of the formed azo dye is proportional to the concentration of unreacted 16-ArN2^+ so that the decrease in absorbance of the azo dye with time can be used to determine kobs. For this purpose, we fitted the experimental (absorbance, time) pairs of data to the integrated first-order rate equation by using a non-linear least squares method provided by a commercial computer program. Figure 4 illustrates the typical variations of the absorbance of the azo dye versus time as determined in the intact fish oil-in-water nanoemulsions. The solid lines are the fitting curves to the integrated and linearized first-order equations.
The relationships between kobs and the partition constants of the AOs between the oil-interfacial, PO^I, and aqueous-interfacial, PW^I, regions are given by Equations (1)–(3), and the partition constants were estimated by fitting the variations of 1/kobs, with ΦI at constant stoichiometric concentration of the antioxidant ([AOT] = 2.5 × 10^−3 M), ΦW (ΦW = 0.9) and ΦO (ΦO = 0.1) as explained in detail elsewhere.
The experimental (kobs, ΦI) pairs of data were fitted to the equations derived from the pseudophase model Equations (1)–(3), which hold for very hydrophilic (Equation (1)) and very hydrophobic (Equation (2)) antioxidants and for those of intermediate hydrophobicity (3).

The nature of data set [3]: DPPH radical assay, EC50 values at different reaction times. The note with it: T = 25 °C. It counts as biochemical. The method, then:
To check if the same insignificant changes hold for HT derivatives, we further tested the point by determining the EC50 values for the different HT derivatives. A UV-Vis Powerwave XS Microplate Reader (96-well microplate, Bio-Tek Instruments, Inc., Winooski, VT, USA) was employed to monitor the loss of DPPH^● (from reaction with each AO) at T = 25.0 ± 0.1 °C. The absorbance of each well was recorded (λ = 515 nm) at 60 s intervals for a 4000 s period, Figure 3.
Each set of experiments was performed in triplicate and, in some instances, in quadruplicate, and the reported EC50 values in Table 1 (determined from data in Figure 3) are the average of these repetitions.
A general note: The DPPH test is a chemical assay of radical scavenging.

Data set [4] can be described thus: Relative oxidative stability of fish oil nanoemulsions, formation of conjugated dienes (AOCS Ti-1a-64). The note with it: for antioxidant efficiency order (time needed to reach 0.5% conjugated dienes): 1:9 fish nanoemulsions, T = 25 °C, [AOT] = 0.1 mM. The text has this: Accelerated tests are commonly used to assess the relative stability of emulsions because of their reproducibility. In the present work, we used the AOCS official standard method Ti-1a-64 to determine the relative antioxidant efficiency of the antioxidants under a set of standardized conditions. For this purpose, we measured the formation of conjugated dienes (CD) with time following the procedure described in detail elsewhere. […] We, however, controlled their stability visually; no phase separation was detected.
We estimated the relative oxidative stability of fish oil nanoemulsions by controlling the extent of lipid oxidation under a set of standardized conditions. For this purpose, we measured the level of oxidation on the basis of the production of conjugated dienes (CD) with time. The method, identical to the AOCS official standard method Ti-1a-64, is rather sensitive and reproducible and suitable for monitoring the early stages of lipid oxidation. Figure 12A is illustrative of a typical oxidation kinetics experiment and where one can observe a constant small increase (lag time) up to a sudden increase in the formation of conjugated dienes (CD). The relative efficiency was assessed by determining the necessary time to reach an increase in CD production of 0.5%. Further details on the experimental procedure and calculations can be found elsewhere.

Data set [5] can be described thus: Shake-flask partition in binary stripped fish oil–water mixtures in the absence of emulsifier. The conditions noted are these: binary 1:9 (v:v) fish oil:water mixture, 25 °C; for partition constant PW^O: average of four runs; for %AOO, percentage present in the oil phase / %AOW, percentage present in the aqueous phase: no emulsifier, pH 3.0 buffer. It counts as physicochemical. The procedure:
The partition constants, PW^O, of HT and some of its esters were determined, by employing the shake-flask method, in binary stripped fish oil–water mixtures in the absence of emulsifier. Sets of four 1:9 (v:v, oil:water, total volume = 10 mL) binary mixtures, each one containing the same AO, were prepared by stirring the mixture at high speed for 1 min. HT and the C1–C3 derivatives were dissolved in the buffered aqueous solution; meanwhile, those with longer alkyl chains were dissolved in the fish oil phase. The final stoichiometric concentration of AOs was 3.5 mM in all samples. Mixtures were stirred at high speed for 2 min and then equilibrated at T = (25 ± 1) °C for at least 24 h in the dark. The resulting two phases were then divided by centrifugation. Concentrations of the AOs in each phase were estimated by interpolation in previously prepared calibration curves by employing UV-Vis (λ = 285 nm). Further details on the method have been published elsewhere.
The reported PW^O values in Table 2 are average of the four runs. The PW^O values for the more hydrophobic antioxidants are not reported because of the high uncertainty in their values, as the ratio of percentages may be susceptible to small errors in the determination of the values of the AO concentrations in the aqueous phase. In any case, PW^O values higher than 150 indicate that AOs are, essentially, water insoluble.

As to `CCCCCCCCCCCC(=O)OCCc1ccc(O)c(O)c1` [C12], the “order of the percentages of AOs in the interfacial region (%AOI)” value (“order of the percentages of AOs … (%AOI)” below) in data set [1] is reported as “%HTI < %C3I < %C16I < %C12I < %C10I < %C8I”. Further, in data set [2], the “partition constant PO^I (oil-interfacial)” value (from here on “partition constant PO^I”) was determined as 16 ± 2. In addition, the “10^2 kI, interfacial rate constant for the reaction between 16ArN2^+ and AO” value (“10^2 kI, interfacial rate constant” for short) in data set [2] was 25.3 ± 0.7 M^−1 s^−1. In addition, the EC50 is given as 0.345 ± 0.005 mol AO/mol DPPH^● in data set [3] (t = 5 min), 0.319 ± 0.004 mol AO/mol DPPH^● in data set [3] (t = 15 min), 0.309 ± 0.011 mol AO/mol DPPH^● in data set [3] (t = 30 min) and 0.294 ± 0.006 mol AO/mol DPPH^● in data set [3] (t = 60 min).
`CCCCCCCC(=O)OCCc1ccc(O)c(O)c1` [C8]: in data set [1], the “order of the percentages of AOs … (%AOI)” value is “%HTI < %C3I < %C16I < %C12I < %C10I < %C8I”. For the same compound, in data set [1] (lowest surfactant fraction ΦI = 0.005, constant o/w ratio), the “effective interfacial concentration relative to the stoichiometric concentration” value is reported as “about 100 times”. Besides, the “partition constant PO^I” value in data set [2] came out at 22 ± 2. Further, the “10^2 kI, interfacial rate constant” value in data set [2] is listed as 21.0 ± 0.3 M^−1 s^−1. Besides, the “antioxidant efficiency order (time needed to reach 0.5% conjugated dienes)” value in data set [4] is “C8 > C10 > C16 > C3 > HT >> control”. Besides, in data set [4] (increase in ΦI of ∼8 times), the “decrease in efficiency on an increase in ΦI of ∼8 times” value is on record as about 1.5 times. The “increase in the oxidative stability of nanoemulsion compared with the control” value in data set [4] (ΦI = 0.005) is on record as about 10 times. The EC50 was found to be 0.295 ± 0.005 mol AO/mol DPPH^● in data set [3] (t = 5 min), 0.265 ± 0.005 mol AO/mol DPPH^● in data set [3] (t = 15 min), 0.256 ± 0.007 mol AO/mol DPPH^● in data set [3] (t = 30 min) and 0.239 ± 0.003 mol AO/mol DPPH^● in data set [3] (t = 60 min).
Regarding `CCC(=O)OCCc1ccc(O)c(O)c1` [C3], in data set [5], the “partition constant PW^O” value is reported as 7.8 ± 0.4; the “%AOO, percentage present in the oil phase” value amounted to 46.37%; the “%AOW, percentage present in the aqueous phase” value is reported as 53.63%. Besides, the “order of the percentages of AOs … (%AOI)” value in data set [1] is listed as “%HTI < %C3I < %C16I < %C12I < %C10I < %C8I”. In data set [2], the “partition constant PO^I” value is recorded as 28 ± 3; the “partition constant PW^I (aqueous-interfacial)” value is 229 ± 40; the “10^2 kI, interfacial rate constant” value stood at 27.7 ± 4.7 M^−1 s^−1. For the same compound, in data set [4], the “antioxidant efficiency order (time needed to reach 0.5% conjugated dienes)” value is reported as “C8 > C10 > C16 > C3 > HT >> control”. For the same compound, the EC50 in data set [3] (t = 5 min) stood at 0.345 ± 0.004 mol AO/mol DPPH^●. Also, the EC50 in data set [3] (t = 15 min) was found to be 0.299 ± 0.002 mol AO/mol DPPH^●. In data set [3] (t = 30 min), this compound registered an EC50 of 0.289 ± 0.005 mol AO/mol DPPH^●. The compound further displayed an EC50 in data set [3] (t = 60 min) of 0.280 ± 0.003 mol AO/mol DPPH^●.
Turning to `O=COCCc1ccc(O)c(O)c1` [C1], the EC50 in data set [3] (t = 5 min) stood at 0.338 ± 0.005 mol AO/mol DPPH^●; in data set [3] (t = 15 min), 0.296 ± 0.003 mol AO/mol DPPH^●; in data set [3] (t = 30 min), 0.288 ± 0.003 mol AO/mol DPPH^●; in data set [3] (t = 60 min), 0.277 ± 0.003 mol AO/mol DPPH^●.
With `CCCCCCCCCCCCCCCC(=O)OCCc1ccc(O)c(O)c1` [C16], in data set [1], the “order of the percentages of AOs … (%AOI)” value is on record as “%HTI < %C3I < %C16I < %C12I < %C10I < %C8I”. For the same compound, the “partition constant PO^I” value in data set [2] was determined as 13 ± 2. For the same compound, the “10^2 kI, interfacial rate constant” value in data set [2] was found to be 25.0 ± 0.8 M^−1 s^−1. For the same compound, the “antioxidant efficiency order (time needed to reach 0.5% conjugated dienes)” value in data set [4] is “C8 > C10 > C16 > C3 > HT >> control”. In addition, the EC50 worked out at 0.331 ± 0.011 mol AO/mol DPPH^● in data set [3] (t = 5 min), 0.305 ± 0.006 mol AO/mol DPPH^● in data set [3] (t = 15 min), 0.302 ± 0.011 mol AO/mol DPPH^● in data set [3] (t = 30 min) and 0.298 ± 0.007 mol AO/mol DPPH^● in data set [3] (t = 60 min).
Take `OCCc1ccc(O)c(O)c1` [HT, Hydroxytyrosol]: in data set [5], the “partition constant PW^O” value is 0.3 ± 0.1; the “%AOO, percentage present in the oil phase” value stood at 3.01%; the “%AOW, percentage present in the aqueous phase” value was found to be 96.99%. Besides, the “order of the percentages of AOs … (%AOI)” value in data set [1] is “%HTI < %C3I < %C16I < %C12I < %C10I < %C8I”. For the same compound, in data set [2], the “partition constant PW^I (aqueous-interfacial)” value came out at 71 ± 12; the “10^2 kI, interfacial rate constant” value is recorded as 14.2 ± 0.1 M^−1 s^−1. Further, the “antioxidant efficiency order (time needed to reach 0.5% conjugated dienes)” value in data set [4] is recorded as “C8 > C10 > C16 > C3 > HT >> control”. Moreover, in data set [3] (t = 5 min), the EC50 is recorded as 0.323 ± 0.005 mol AO/mol DPPH^●. The compound further gave an EC50 in data set [3] (t = 15 min) of 0.287 ± 0.004 mol AO/mol DPPH^●. The compound also returned an EC50 in data set [3] (t = 30 min) of 0.279 ± 0.004 mol AO/mol DPPH^●. In data set [3] (t = 60 min), this compound came in with an EC50 of 0.258 ± 0.004 mol AO/mol DPPH^●.
